Results taken from patent publication US12708106B2 (priority 2019, dated 2026).

System: Eimeria and Clostridium perfringens
Type: in vivo, male broilers
[1] = T4: 10 ppm (Enradin 8%), Eimeria + Clostridium challenge, mean ± SD

In the case of Enramycin, the “BWG—Body Weight Gain 1-7 D” value [1] is reported as 90.95 ± 5.11 b g, the “FCR (Feed Conversion Ratio) 1-7 D” value [1] is reported as 1.568 ± 0.123 and the “BWG—Body Weight Gain 1-14 D” value (T4: 10 ppm, challenged) is reported as 413.37 ± 12.89 b g. The “BWG—Body Weight Gain 1-21 D” value (T4: 10 ppm, challenged) was 926.22 ± 23.58 b g, the “BWG—Body Weight Gain 1-28 D” value (T4: 10 ppm, challenged) was 1595.5 ± 42.62 b g and the “FCR (Feed Conversion Ratio) 1-14 D” value (T4: 10 ppm, challenged) was 1.070 ± 0.049. For the same substance, the “FCR (Feed Conversion Ratio) 1-21 D” value (T4: 10 ppm, challenged) was 1.255 ± 0.036 ab and the “FCR (Feed Conversion Ratio) 1-28 D” value (T4: 10 ppm, challenged) was 1.228 ± 0.024 ab.
